These results are taken from ChEMBL document CHEMBL1932991, “Novel ATP competitive MK2 inhibitors with potent biochemical and cell-based activity throughout the series” (Bioorg Med Chem Lett, 2012).

The structures appear in SMILES notation.

Data set [1] addresses T1, MAP kinase-activated protein kinase 2 (Homo sapiens, UniProt P49137). Description: Inhibition of MK2 using Fluo-betaA-11A NeoMPS as substrate pre-incubated for 30 mins before substrate addition measured after 2 hrs by IMAP assay.
Data set [2] has as its target T1, MAP kinase-activated protein kinase 2. Description: Inhibition of MK2-mediated HSP27 phosphorylation in LPS-stimulated human THP1 cells pre-incubated for 60 mins prior to LPS-induction measured after 60 mins by multi-spot assay. The data set is classed as cell-based, THP-1.
The subject of another data set is PBMC. In words: Inhibition of LPS-induced TNFalpha production in human PBMC pre-incubated for 30 mins prior to LPS-induction measured after 4 hrs by ELISA. The data set is classed as functional, cell-based. The note with it: Homo sapiens, PBMC. (An ELISA detects its analyte on a solid surface through an enzyme-linked reagent.)
A short description of data set [3]: Dissociation constant, pKa of the compound at pH 7.4. The data set is classed as physicochemical.
The subject of another data set is THP-1. Description: Inhibition of LPS-induced TNFalpha production in human THP1 cells pre-incubated for 30 mins prior to LPS-induction measured after 4 hrs by ELISA. As to conditions: Homo sapiens, THP-1. It is filed as functional, cell-based.
Data set [4] is described as follows: Plasma protein binding in human. The data set is classed as ADME, cell-free. As to conditions: read-out: PPB (converted).

As usually defined, the EC50 is the concentration that produces a half-maximal response. High values mean lower potency in that assay, low ones higher potency in that assay. The pKa is the negative logarithm of the acid dissociation constant.

T1 sequence (P49137 whole entry): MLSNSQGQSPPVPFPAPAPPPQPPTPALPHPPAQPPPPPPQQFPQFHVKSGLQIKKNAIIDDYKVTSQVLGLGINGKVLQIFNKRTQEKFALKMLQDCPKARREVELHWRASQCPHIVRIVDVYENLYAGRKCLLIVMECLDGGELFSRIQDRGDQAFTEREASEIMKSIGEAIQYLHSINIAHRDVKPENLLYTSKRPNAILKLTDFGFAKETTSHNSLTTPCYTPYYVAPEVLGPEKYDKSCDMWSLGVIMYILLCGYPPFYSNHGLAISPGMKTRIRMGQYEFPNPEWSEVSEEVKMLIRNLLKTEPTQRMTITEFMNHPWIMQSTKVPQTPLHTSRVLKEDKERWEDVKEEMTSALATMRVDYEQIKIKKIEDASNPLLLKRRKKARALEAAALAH

Regarding `O=C(Nc1cc(-c2cc3c([nH]2)C2(CCCNC2)CNC3=O)ccn1)c1cccc(OC(F)(F)F)c1` (racemic), the EC50 came to 11 nM in data set [1], 610 nM in data set [2], 200 nM in the data set on PBMC and 620 nM in the data set on THP-1. In data set [3], this molecule showed a pKa of 8.2. Besides, the fraction unbound in data set [4] was 0.013.

With `O=C(Nc1cc(-c2cc3c([nH]2)C2(CCNC2)CNC3=O)ccn1)c1cccc(OC(F)(F)F)c1` (racemic), the EC50 in data set [1] came to 1.6 nM; in data set [2] it was 400 nM; in the data set on PBMC, 650 nM; in the data set with THP-1, 690 nM. In data set [3], this molecule showed a pKa of 8.4. Further, in data set [4], the fraction unbound is 0.017.
